This passage reports IC50 results from patent publication US10189841B2, “Purinones as ubiquitin-specific protease 1 inhibitors” (Forma Therapeutics, Inc., priority 2015, dated 2019).

In this assay the target is USP1 (construct USP1 (I-785, GG670, 671AA)/UAF1 (I-677)-Flag) (Homo sapiens (Human), UniProt O94782, G670A/G671A). The assay can be described thus: Ubiquitin-Rhodamine 110 assay for USP1 activity. It is filed as biochemical. As to conditions: USP1/UAF1 25 pM, Ub-Rh110 25 nM, 30 min preincubation. Put shortly:
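Two formats with the USP1/UAF1 complex and 25 nM ubiquitin-rhodamine 110 in pH 8.0 Tris buffer with calcium, glutathione and detergent. Single-point screening used 10 µM, 100 pM enzyme and 45 min. Inhibition was set against no-enzyme and DMSO wells.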

As usually defined, the IC50 is the point on the concentration scale where inhibition reaches its midpoint. High values mean weaker potency, low ones greater potency.

Chain of USP1 (construct USP1 (I-785, GG670, 671AA)/UAF1 (I-677)-Flag) (O94782 whole entry G670A/G671A): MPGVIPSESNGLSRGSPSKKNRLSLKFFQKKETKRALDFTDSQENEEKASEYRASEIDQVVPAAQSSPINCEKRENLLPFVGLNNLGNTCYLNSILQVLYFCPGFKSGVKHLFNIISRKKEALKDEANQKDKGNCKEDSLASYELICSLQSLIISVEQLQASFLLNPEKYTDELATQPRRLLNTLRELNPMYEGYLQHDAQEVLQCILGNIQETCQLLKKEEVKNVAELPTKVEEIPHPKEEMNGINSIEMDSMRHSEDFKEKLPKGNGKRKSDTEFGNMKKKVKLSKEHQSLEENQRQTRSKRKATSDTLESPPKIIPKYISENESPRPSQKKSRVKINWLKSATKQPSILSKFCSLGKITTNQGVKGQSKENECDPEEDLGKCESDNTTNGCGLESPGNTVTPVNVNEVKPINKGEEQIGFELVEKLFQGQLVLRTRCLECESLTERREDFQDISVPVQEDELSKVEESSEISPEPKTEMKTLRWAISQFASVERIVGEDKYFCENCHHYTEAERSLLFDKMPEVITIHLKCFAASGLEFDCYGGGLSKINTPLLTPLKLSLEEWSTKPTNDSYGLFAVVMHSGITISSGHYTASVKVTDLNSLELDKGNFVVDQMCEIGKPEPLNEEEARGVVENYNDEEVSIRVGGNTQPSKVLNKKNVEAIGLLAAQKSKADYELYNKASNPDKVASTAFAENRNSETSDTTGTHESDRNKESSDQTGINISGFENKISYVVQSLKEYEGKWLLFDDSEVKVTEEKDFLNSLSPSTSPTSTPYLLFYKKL
Chain of USP1 (construct USP1 (I-785, GG670, 671AA)/UAF1 (I-677)-Flag) (Q8TAF3 whole entry partner): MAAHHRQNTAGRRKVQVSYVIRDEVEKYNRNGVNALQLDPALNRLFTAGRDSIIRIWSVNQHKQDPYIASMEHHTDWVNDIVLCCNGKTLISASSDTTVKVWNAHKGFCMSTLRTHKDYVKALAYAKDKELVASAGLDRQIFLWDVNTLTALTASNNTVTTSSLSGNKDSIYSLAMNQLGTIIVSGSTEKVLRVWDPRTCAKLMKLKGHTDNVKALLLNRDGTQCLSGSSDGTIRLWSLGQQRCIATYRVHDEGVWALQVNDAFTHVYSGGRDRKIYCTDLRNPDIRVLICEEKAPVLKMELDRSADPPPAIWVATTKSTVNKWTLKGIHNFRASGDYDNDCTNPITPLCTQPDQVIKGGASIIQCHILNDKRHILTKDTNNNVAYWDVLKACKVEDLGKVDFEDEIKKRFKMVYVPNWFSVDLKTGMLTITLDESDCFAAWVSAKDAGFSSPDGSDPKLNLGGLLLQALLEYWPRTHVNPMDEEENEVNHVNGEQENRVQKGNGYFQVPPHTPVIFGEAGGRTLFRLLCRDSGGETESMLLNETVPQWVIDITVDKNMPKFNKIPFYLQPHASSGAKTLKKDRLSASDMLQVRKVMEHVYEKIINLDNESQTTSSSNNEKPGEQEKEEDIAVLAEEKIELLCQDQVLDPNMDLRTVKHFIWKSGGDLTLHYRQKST

`CC(C)c1ccccc1-c1ncc2[nH]c(=O)n(C3(c4ccc(F)cc4)CC3)c2n1` [Compound I-227, 9-(1-(4-fluorophenyl)cyclopropyl)-2-(2-isopropylphenyl)-7,9-dihydro-8H-purin-8-one] returned an IC50 of less than 50 nM.

The compound `CC(C)c1ccccc1-c1ncc2c(n1)n(CC1CCN(S(=O)(=O)c3cccnc3)CC1)c(=O)n2C` [Compound I-449, 2-(2-isopropylphenyl)-7-methyl-9-((1-(pyridin-3-ylsulfonyl)piperidin-4-yl)methyl)-7,9-dihydro-8H-purin-8-one] registered an IC50 greater than 2000 nM.

In turn, `CC(C)c1ccccc1-c1ncc2[nH]c(=O)n(Cc3ccc4c(c3)CCN(C)C4=O)c2n1` [Compound I-187, 6-((2-(2-isopropylphenyl)-8-oxo-7,8-dihydro-9H-purin-9-yl)methyl)-2-methyl-3,4-dihydroisoquinolin-1(2H)-one] returned an IC50 of less than 50 nM.

Turning to `Cn1cc(C(F)(F)F)nc1-c1ccc(Cn2c(=O)n(C)c3cnc(-c4cccnc4N4CC(C(F)(F)F)C4)nc32)cc1` [Compound I-136, 7-methyl-9-(4-(1-methyl-4-(trifluoromethyl)-1H-imidazol-2-yl)benzyl)-2-(2-(3-(trifluoromethyl)azetidin-1-yl)pyridin-3-yl)-7,9-dihydro-8H-purin-8-one], the IC50 fell in the range of 50 to 200 nM.

Take `CC(C)c1ccccc1-c1ncc2[nH]c(=O)n(Cc3ccc(CN4CCOCC4)cc3)c2n1` [Compound I-153, 2-(2-isopropylphenyl)-9-(4-(morpholinomethyl)benzyl)-7,9-dihydro-8H-purin-8-one]: the IC50 was greater than 2000 nM.

`CC(C)c1ccccc1-c1ncc2[nH]c(=O)n(Cc3ccc(-c4cc(N5CCOCC5)ncn4)cc3)c2n1` [Compound I-250, 2-(2-isopropylphenyl)-9-(4-(6-morpholinopyrimidin-4-yl)benzyl)-7,9-dihydro-8H-purin-8-one] returned an IC50 of 50 to 200 nM.

Compound `O=c1[nH]c2cnc(-c3cc(Cl)ccc3C3CC3)nc2n1Cc1ccc(-n2cccn2)cc1` [Compound I-95, 9-(4-(1H-pyrazol-1-yl)benzyl)-2-(5-chloro-2-cyclopropylphenyl)-7,9-dihydro-8H-purin-8-one] had an IC50 of less than 50 nM.

`O=c1[nH]c2cnc(-c3cccc4c3OC(F)(F)O4)nc2n1Cc1ccc(-n2cccn2)cc1` [Compound I-25, 9-(4-(1H-pyrazol-1-yl)benzyl)-2-(2,2-difluorobenzo[d][1,3]dioxol-4-yl)-7,9-dihydro-8H-purin-8-one]: the IC50 was 50 to 200 nM.

`Cc1cc(CO)n(-c2ccc(Cn3c(=O)[nH]c4cnc(-c5ccccc5C5CC5)nc43)cc2)n1` [Compound I-542, 2-(2-Cyclopropylphenyl)-9-(4-(5-(hydroxymethyl)-3-methyl-1H-pyrazol-1-yl)benzyl)-7,9-dihydro-8H-purin-8-one] showed an IC50 of less than 50 nM.

As for `COCC1CCCN(C(=O)c2ccc(Cn3c(=O)[nH]c4cnc(-c5ccccc5C(C)C)nc43)cc2)C1` (stereo not drawn) [Compound I-368, 2-(2-isopropylphenyl)-9-(4-(3-(methoxymethyl)piperidine-1-carbonyl)benzyl)-7,9-dihydro-8H-purin-8-one], the IC50 was in the range of 50 to 200 nM.

Take `CNc1nc(-c2cccnc2OC(F)F)nc2c1[nH]c(=O)n2Cc1ccc(-c2nc(C(F)(F)F)cn2C)cc1` [Compound I-531, 2-(2-(Difluoromethoxy)pyridin-3-yl)-9-(4-(1-methyl-4-(trifluoromethyl)-1H-imidazol-2-yl)benzyl)-6-(methylamino)-7,9-dihydro-8H-purin-8-one]: the IC50 is less than 50 nM.

`Cc1cc(Cl)nn1-c1ccc(Cn2c(=O)[nH]c3cnc(-c4ccccc4C(C)C)nc32)cc1` [Compound I-210, 9-(4-(3-chloro-5-methyl-1H-pyrazol-1-yl)benzyl)-2-(2-isopropylphenyl)-7,9-dihydro-8H-purin-8-one] returned an IC50 of less than 50 nM.

On to `COCCNC(=O)Nc1ccc(Cn2c(=O)n(C)c3cnc(-c4ccccc4C(C)C)nc32)cc1` [Compound I-482, 1-(4-((2-(2-isopropylphenyl)-7-methyl-8-oxo-7,8-dihydro-9H-purin-9-yl)methyl)phenyl)-3-(2-methoxyethyl)urea], for which the IC50 fell in the range of 200 to 2000 nM.

Take `CC(C)c1ccccc1-c1ncc2[nH]c(=O)n(Cc3ccc(-n4ccc(N5CCOCC5)n4)cc3)c2n1` [Compound I-174, 2-(2-isopropylphenyl)-9-(4-(3-morpholino-1H-pyrazol-1-yl)benzyl)-7,9-dihydro-8H-purin-8-one]: the IC50 was less than 50 nM.

For `COc1ccn(-c2ccc(Cn3c(=O)[nH]c4cnc(-c5ccccc5C(C)C)nc43)cc2)n1` [Compound I-204, 2-(2-isopropylphenyl)-9-(4-(3-methoxy-1H-pyrazol-1-yl)benzyl)-7,9-dihydro-8H-purin-8-one], the IC50 was less than 50 nM.

Take `Cn1cc(C(F)(F)F)nc1-c1ccc(Cn2c(=O)[nH]c3cnc(-c4cccnc4F)nc32)cc1` [Compound I-57, 2-(2-fluoropyridin-3-yl)-9-(4-(1-methyl-4-(trifluoromethyl)-1H-imidazol-2-yl)benzyl)-7,9-dihydro-8H-purin-8-one]: the IC50 lay within 200 to 2000 nM.

Compound `CC(C)c1ccccc1-c1ncc2[nH]c(=O)n(Cc3ccc(-c4nc(C(F)(F)F)cn4C)cc3)c2n1` [Compound I-138, 2-(2-Isopropylphenyl)-9-(4-(1-methyl-4-(trifluoromethyl)-1H-imidazol-2-yl)benzyl)-7,9-dihydro-8H-purin-8-one] returned an IC50 of less than 50 nM.

As for `Cn1cc(C(F)(F)F)nc1-c1ccc(Cn2c(=O)[nH]c3cnc(-c4cccnc4OCC(F)(F)F)nc32)cc1` [Compound I-26, 9-(4-(1-methyl-4-(trifluoromethyl)-1H-imidazol-2-yl)benzyl)-2-(2-(2,2,2-trifluoroethoxy)pyridin-3-yl)-7,9-dihydro-8H-purin-8-one], the IC50 is less than 50 nM.
